In experiment [1] the target is Thymidine kinase (Human herpesvirus 1). The experiment can be described thus: Compound was evaluated for inhibitory effect against phosphorylation of [methyl-3H]dThd by HSV-1 Thymidine kinase.
For experiment [2], the target named is Thymidine kinase 2, mitochondrial (Homo sapiens) (UniProt O00142). The experiment in a line: Inhibitory effect against phosphorylation of [methyl-3H]dThd by Thymidine Kinase 2 (TK-2).
Experiment [3] concerns the target Thymidine kinase (Human herpesvirus 1). The experiment in a line: Inhibitory activity against HSV-1 Thymidine kinase in OST-TK-/HSV-1 TK+ cell line in combination with gancicclovir.
The target is the same in experiment [4]. The experiment can be described thus: Inhibitory activity against HSV-1 Thymidine kinase in OST-TK-/HSV-1 TK+ cell line in combination with BVAraU.

From BindingDB's records for doi:10.1021/jm011128+ (2002) come the findings set out here.

One may read the IC50 as the concentration at which inhibition is half-maximal.

Each structure is given as a SMILES string.

Chain of Thymidine kinase 2, mitochondrial (Homo sapiens) (O00142 whole entry, looked up): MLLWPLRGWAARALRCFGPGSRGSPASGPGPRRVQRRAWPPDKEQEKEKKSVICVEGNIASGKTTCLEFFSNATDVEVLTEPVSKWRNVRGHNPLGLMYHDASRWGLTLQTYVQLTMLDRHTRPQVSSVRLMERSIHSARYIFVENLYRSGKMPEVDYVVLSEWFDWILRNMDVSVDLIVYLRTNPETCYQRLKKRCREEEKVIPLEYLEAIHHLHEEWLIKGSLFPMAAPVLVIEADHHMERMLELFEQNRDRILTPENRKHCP

As for `COc1ccc(C(OCC2OC(n3cc(C)c(=O)[nH]c3=O)CC2O)(c2ccccc2)c2ccc(OC)cc2)cc1` (stereo not drawn) [1-{5-[Bis-(4-methoxy-phenyl)-phenyl-methoxymethyl]-4-hydroxy-tetrahydro-furan-2-yl}-5-methyl-1H-pyrimidine-2,4-dione], in experiment [1], the IC50 came out at 14 µM.
Molecule `Cc1cn(C/C=C\COC(=O)C(C)(C)C)c(=O)[nH]c1=O` [2,2-Dimethyl-propionic acid 4-(5-methyl-2,4-dioxo-3,4-dihydro-2H-pyrimidin-1-yl)-but-2-enyl ester] returned a concentration for half-maximal inhibition (IC50) in experiment [2] of 40 µM.
Still for that read-out and setting: for `Cc1cn(C/C=C\COCc2ccccc2)c(=O)[nH]c1=O` [1-(4-Benzyloxy-but-2-enyl)-5-methyl-1H-pyrimidine-2,4-dione] the value was 22 µM; for `Cc1cn(C/C=C\COC(=O)c2ccccc2)c(=O)[nH]c1=O` [Benzoic acid 4-(5-methyl-2,4-dioxo-3,4-dihydro-2H-pyrimidin-1-yl)-but-2-enyl ester], 30 µM.
For `Cc1cn(CC#CCOC(c2ccccc2)(c2ccccc2)c2ccccc2)c(=O)[nH]c1=O` [5-Methyl-1-(4-trityloxy-but-2-ynyl)-1H-pyrimidine-2,4-dione], it took 3.1 µM to reach half-maximal inhibition in experiment [1] (IC50).
`Cc1cn(Cc2ccccc2COC(c2ccccc2)(c2ccccc2)c2ccccc2)c(=O)[nH]c1=O` [5-Methyl-1-(2-trityloxymethyl-benzyl)-1H-pyrimidine-2,4-dione]: the IC50 worked out at 0.002 µM in experiment [3] and 0.008 µM in experiment [4].
The molecule `Cc1cn(C/C=C\COC(=O)C(c2ccccc2)c2ccccc2)c(=O)[nH]c1=O` [Diphenyl-acetic acid 4-(5-methyl-2,4-dioxo-3,4-dihydro-2H-pyrimidin-1-yl)-but-2-enyl ester] yielded an IC50 in experiment [2] of 4.6 µM.
